IC50 data for seven compounds are collected here from the Kinase Knowledgebase extract (Sharma et al. 2016).

SMILES strings stand for the structures.

Assay [1] has as its target CDK2 (UniProt P24941). The assay can be described thus: Enzyme Assay.
The target in assay [2] is CDK2 (UniProt P24941). The assay is described as follows: Enzyme Assay. This is another data set of the same source.

Turning to `COC(=O)[C@@]1(O)C[C@H]2O[C@]1(C)n1c3ccccc3c3c4c(c5c6ccccc6n2c5c31)C(=O)N[C@H]4CC(C)C`, the IC50 turned out to be 0.07 µM against CDK2 [1] and 22 µM at CDK2 [2]. As to `CC(C)(C)n1nc(-c2cccc3ccccc23)c2c(N)ncnc21`, the IC50 against CDK2 [1] amounted to 0.015 µM; against CDK2 [2], 18 µM. For `COC(=O)[C@@]1(O)C[C@H]2O[C@]1(C)n1c3ccccc3c3c4c(c5c6ccccc6n2c5c31)C(=O)N[C@@H]4Cc1ccccc1` the same measures were 10 µM and 10 µM.

For the compound `COC(=O)[C@@]1(O)C[C@H]2O[C@]1(C)n1c3ccccc3c3c4c(c5c6ccccc6n2c5c31)C(=O)N[C@H]4CCc1ccccc1`, the IC50 against CDK2 [2] amounted to 3.7 µM. For the compound `COC(=O)[C@@]1(O)C[C@H]2O[C@]1(C)n1c3ccccc3c3c4c(c5c6ccccc6n2c5c31)C(=O)N[C@H]4Cc1ccccc1`, the IC50 is 0.15 µM at CDK2 [1] and 1 µM at CDK2 [2]. Turning to `CCC(C)[C@@H]1NC(=O)c2c1c1c3ccccc3n3c1c1c2c2ccccc2n1[C@H]1C[C@](O)(C(=O)OC)[C@]3(C)O1` (stereo partly drawn), the IC50 was greater than 3.7 µM against CDK2 [1] and 5.8 µM against CDK2 [2]. Consider `COC(=O)[C@@]1(O)C[C@H]2O[C@]1(C)n1c3ccccc3c3c4c(c5c6ccccc6n2c5c31)C(=O)N[C@H]4C(C)C`, for which the half-maximal inhibitory concentration (IC50) was 1.9 µM against CDK2 [1] and 29 µM at CDK2 [2].
